This test addresses T1, Human Factor D (Homo sapiens, UniProt P00746).
T1 construct: purified from human serum
Briefly: Human Factor D Assay. In kind it is biochemical. The conditions noted are these: Human Factor D 80 nM, substrate Z-L-Lys-SBzl, assay of Example 12. Here is the method: Human Factor D (purified from human serum, Complement Technology, Inc.) at 80 nM final concentration was incubated with test compound at various concentrations for 5 minutes at room temperature in 50 mM Tris, 1M NaCl, pH 7.5. A synthetic substrate Z-L-Lys-SBzl and DTNB (Ellman's reagent) are added to final concentrations of 100 μM each. Absorbance at 405 nm (A405) was recorded at 30 second intervals for 30 minutes using a microplate spectrophotometer. IC50 values are calculated by nonlinear regression of complement Factor D reaction rates as a function of test compound concentration.
The assay of Example 12 was used to determine the IC50's of the compounds. Other standard Factor D inhibition assays are also available.

T1 sequence (P00746 26-253): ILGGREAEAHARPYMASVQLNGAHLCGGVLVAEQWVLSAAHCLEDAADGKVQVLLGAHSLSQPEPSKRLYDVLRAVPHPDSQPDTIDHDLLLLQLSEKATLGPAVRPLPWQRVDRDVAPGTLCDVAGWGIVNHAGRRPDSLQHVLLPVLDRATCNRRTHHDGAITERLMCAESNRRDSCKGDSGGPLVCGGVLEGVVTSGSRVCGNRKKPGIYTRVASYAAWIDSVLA

Broadly, the IC50 is the point on the concentration scale where inhibition reaches its midpoint. A lower IC50 goes with greater potency. On to `Cc1cccc(NC(=O)[C@@H]2CC=CCN2C(=O)Cn2cc(C(N)=O)c3cc(Nc4cccnn4)ccc32)n1` [compound 1, (S)-1-(2-(6-((6-methylpyridin-2-yl)carbamoyl)-5,6-dihydropyridin-1(2H)-yl)-2-oxoethyl)-5-(pyridazin-3-ylamino)-1H-indole-3-carboxamide], for which the IC50 was > 10 µM.

These data come from patent US10906887B2, “Amino compounds for treatment of immune and inflammatory disorders” (Achillion Pharmaceuticals, Inc., priority 2015, dated 2021).
